Reference: patent EP0103895A2, “Novel hydroxylamine derivatives, production and use thereof” (MEIJI SEIKA KABUSHIKI KAISHA, priority 1982, dated 1984)
Several values for one entry are separate records, joined by “and”; a condition that tells them apart may be missing. Identical values can stand only once.

Assays:
[1] = test system: fowl roundworm (Ascaridia galli); assay: Anthelmintic test in chickens artificially infected with fowl roundworm, single oral dose in gelatin capsule, worm bodies counted within 48 hours (Test Examples A1, B1, C1, D1); format: in vivo; details: Ascaridia galli, po, 48 h, chicken, chickens No.1-3, read-out: Anthelmintic effect after 48 hours
In short: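 Anthelmintic percentage derived from counts of worms passed within 48 h plus worms left in the intestine after killing at 48 h. Infection confirmed by fecal examination in three-bird groups; compound given orally once in gelatin capsules at 10/20 (A1, B1), 30/50 (C1) or 15/30 (D1) mg/kg.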

[2] = test system: fowl roundworm (As. galli); assay: Anthelmintic test in chickens artificially infected with fowl roundworm, compound added to feed, E.P.G. and worm count up to 21st day (Test Examples A2, B2, C2, D2); format: in vivo, Ascaridia galli; details: Ascaridia galli, feed or water, 504 h, chicken, read-out: Anthelmintic effect; for inhibition in vivo at 25 ppm: 25 ppm in feed; for inhibition in vivo at 50 ppm: 50 ppm in feed
[3] = test system: stomach worm (Haemonchus controtus); assay: Anthelmintic test against cow stomach worm in naturally infected cows, E.P.G. on 7th day (Test Examples A6, B6, C6, D6); format: in vivo
Procedure: Three cows infected with stomach worm (naturally infected cows) were employed by grouping them into a group of two and a group of one.
(§1) As control, only gelatin capsules were administered orally to the one cow.
(§2) Before administration and on the 7th day after administration, fecal matter testing was conducted to calculate the E.P.G., and the anthelmintic effect was judged by the changing of the E.P.G. to negative.
as §1, §1

[4] = test system: Trichostrongylidae (Trichostrongylus colubriformis); assay: Anthelmintic test against sheep Trichostrongylidae in naturally infected sheep, E.P.G. on 7th day (Test Examples A7, B7, C7, D7); format: in vivo
Procedure: Two sheep infected with Trichostrongylidae (naturally infected sheep) were employed.
The compound provided for the test was Compound No. Al, 15 mg of which was placed in a gelatin capsule per 1 Kg of body weight and administered orally to one of the sheep. As a control, only gelatin capsules were administered orally to the other sheep.
as §2
As control, only gelatin capsules were administered orally to the other sheep.
As control, only gelatin capsule was administered orally to the other sheep.

[5] = test system: swine roundworm (Ascaris suum); assay: Test of anthelmintic effect in naturally infected pigs, E.P.G. on 7th day: swine roundworm (Test Examples A9, B9, C9, D9); format: in vivo; details: pig, Ascaris suum
Procedure: (§3) Six pigs infected with swine roundworm and swine whipworm (naturally infected pigs) were employed in groups each of two pigs.
(§4) As a control, only gelatin capsules were administered orally to the two pigs.
(§5) Before administration and on the 7th day after. administration, fecal matter testing was conducted to calculate the E.P.G., and the anthelmintic effect was judged by the changing of the E.P.G. to negative'.
(§6) 50 mg of each compound was placed in a gelatin capsule per 1 Kg of body weight and administered orally to each of the two pigs. As control, only gelatin capsules were administered orally to two pigs.
(§7) 30 mg of each compound was placed in a gelatin capsule per 1 Kg of body weight and administered orally to each of the two pigs. As control, only gelatin capsules were administered orally to two pigs.

[6] = test system: swine whipworm (Trichuris suis); assay: Test of anthelmintic effect in naturally infected pigs, E.P.G. on 7th day: swine whipworm (Test Examples A9, B9, C9, D9); format: in vivo; details: pig
Procedure: as §3, §4, §5, §6, §7

[7] = test system: canine whipworm (Trichuris vulpis); assay: Anthelmintic test in naturally infected dogs with mixed infections, E.P.G. on 7th day: canine whipworm (Test Examples A3, B3, C3, D3); format: in vivo
Procedure: (§8) Three dogs with mixed infections by canine whipworm (Trichuris vulpis), canine hookworm (Ancylostoma caninum) and canine roundworm (Toxocara canis) (naturally infected dogs) were employed in a group of two and a group of one.
(§9) The compound provided for the test was Compound No.Al, and 20 mg/Kg thereof was placed in a gelatin capsule per 1 Kg of body weight, and administered orally to the two dogs. As control, only a gelatin capsule was administered orally to the one dog.
as §2
(§10) As control, only gelatin capsules were administered orally to the one dog.
(§11) The same method as in Test Example A3, but the compound provided for the test was Compound No. Cl. 30 mg/Kg of this compound was placed in a gelatin capsule per 1 Kg of body weight and administered orally to the two dogs. As control, only gelatin capsules were administered orally to the one dog.

[8] = test system: canine hookworm (Ancylostoma caninum); assay: Anthelmintic test in naturally infected dogs with mixed infections, E.P.G. on 7th day: canine hookworm (Test Examples A3, B3, C3, D3); format: in vivo; details: dog
Procedure: as §8, §9, §2, §10, §11

[9] = test system: canine roundworm (Toxocara canis); assay: Anthelmintic test in naturally infected dogs with mixed infections, E.P.G. on 7th day: canine roundworm (Test Examples A3, B3, C3, D3); format: in vivo; details: dog, 20 mg/Kg, one administration
Procedure: as §8, §9, §2, §10, §11

[10] = test system: Liver fluke; Fasciola hepatica (F. hepatica); assay: Test of anthelmintic effect against rat infected experimentally with liver fluke (Test Examples A11, B11, C11, D11); format: in vivo
[11] = before 20 mg/Kg (baseline), hydrochloride

C=CCNOCC.Cl [Compound D1, N-allyl-O-ethylhydroxylamine hydrochloride]
inhibition in vivo at 15 mg/kg ([1]; 15 mg/Kg oral in gelatin capsule): 80 to 90% | inhibition in vivo at 30 mg/kg ([1]; 30 mg/Kg oral in gelatin capsule): 100% | inhibition in vivo at 25 ppm [2]: 80 to 90% | inhibition in vivo at 50 ppm [2]: 100% | Change of E.P.G. 7th day ([3]; cow, Haemonchus controtus, 15 mg/Kg, one administration): 0 | Change of E.P.G. Before administration ([3]; cow, Haemonchus controtus, before 15 mg/Kg (baseline), hydrochloride): 3,700 and 5,400 | anthelmintic effect ([3]; cows, one administration of 15 mg/Kg): marked anthelmintic effect | Change of E.P.G. 7th day ([4]; Trichostrongylus colubriformis, 15 mg/Kg, one administration): 0 | Change of E.P.G. Before administration ([4]; Trichostrongylus colubriformis, before 15 mg/Kg (baseline)): 2,900 | anthelmintic effect ([4]; one administration of 15 mg/Kg): marked anthelmintic effect | Change of E.P.G. 7th day ([5]; 20 mg/Kg, one administration): 0 | Change of E.P.G. Before administration [5, 11]: 2,700 and 3,100 | Change of E.P.G. 7th day ([6]; 20 mg/Kg, one administration): 0 | Change of E.P.G. Before administration [6, 11]: 6,600 and 4,200

C#CCNOCC=C.Cl [Compound D14, N-propargyl-O-allylhydroxylamine hydrochloride]
inhibition in vivo at 25 ppm [2]: 80 to 90% | inhibition in vivo at 50 ppm [2]: 100% | Change of E.P.G. 7th day ([7]; dog, Trichuris vulpis, 20 mg/Kg, one administration): 0 | anthelmintic effect ([7]; dogs with mixed infections (Trichuris vulpis, Ancylostoma caninum, Toxocara canis; statement covers all three), one administration of 20 mg/Kg): marked anthelmintic effect | Change of E.P.G. 7th day ([8]; 20 mg/Kg, one administration): 0 | Change of E.P.G. Before administration [8, 11]: 3,300 and 6,800 | Change of E.P.G. 7th day [9]: 0 | Condition of fluke bodies ([10]; rat, 50 mg/Kg x 5): dead | Presence or absence of fluke egg in fecal matter On 21st day after the last administration ([10]; rat, 50 mg/Kg x 5): - | anthelmintic effect ([10]; rats, five administrations in a dose of 50 mg/Kg each): marked anthelmintic effect
